target: ERK2 enzyme (Homo sapiens (Human), UniProt P28482); test: Inhibition assay of ERK (Z'-LYTE kinase assay, Ser/Thr 3 peptide substrate); assay type: biochemical; settings: In vitro ERK2 enzyme, 100 μM ATP
Method: The inhibition of ERK activity by the compounds disclosed herein was determined using the Z′-LYTE kinase assay kit (Life Technologies) with a Ser/Thr 3 peptide substrate (Life Technologies) according to manufacturers' instructions. […] The IC50 values for the compounds were determined with 3-fold serial dilutions in duplicate. […] The final DMSO concentration in the assay was 1%. Final reaction volume was 20 μL/well in 384-well plates. Kinase reactions were conducted or 1 hour followed by the assay development reaction (1 hour) in a 20 ul/well in a 384 well plate format.

ERK2 enzyme, sequence (P28482 whole entry): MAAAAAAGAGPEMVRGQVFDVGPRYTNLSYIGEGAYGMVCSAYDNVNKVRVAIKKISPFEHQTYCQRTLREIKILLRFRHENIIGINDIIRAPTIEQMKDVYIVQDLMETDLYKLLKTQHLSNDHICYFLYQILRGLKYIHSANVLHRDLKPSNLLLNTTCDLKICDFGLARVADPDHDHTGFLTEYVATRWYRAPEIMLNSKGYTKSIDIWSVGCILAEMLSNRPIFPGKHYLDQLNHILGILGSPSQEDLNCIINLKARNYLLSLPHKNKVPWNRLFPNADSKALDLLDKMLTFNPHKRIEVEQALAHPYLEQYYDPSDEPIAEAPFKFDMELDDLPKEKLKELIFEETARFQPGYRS

`Cn1cc(-c2n[nH]c3cc4c(cc23)CN(Cc2ccc(F)c(Cl)c2)C(=O)N4)cn1` [Compound 31] and `Cc1cc(-c2n[nH]c3cc4c(cc23)CN(Cc2ccc(F)c(Cl)c2)C(=O)N4)ccn1` [Compound 8] cannot be ordered by IC50: less than 0.05 µM for the first, less than 0.05 µM for the second.

`Cc1cc(-c2n[nH]c3cc4c(cc23)CN([C@@H]2CCCN(Cc3csc(C)n3)C2)C(=O)N4)ccn1` [Compound 140] and `Cc1cc(-c2n[nH]c3cc4c(cc23)CN([C@@H]2CCCN(Cc3ccc(F)cn3)C2)C(=O)N4)ccn1` [Compound 132] cannot be ordered by IC50: less than 0.05 µM for the first, less than 0.05 µM for the second.

`Cc1cc(-c2n[nH]c3cc4c(cc23)CN([C@@H]2CCCNC2)C(=O)N4)ccn1` [Compound 32] and `Cc1cc(-c2n[nH]c3cc4c(cc23)CN(C2CCNCC2)C(=O)N4)ccn1` [Compound 34] fall in the same range of IC50: 0.05 to 0.25 µM for the first, 0.05 to 0.25 µM for the second.

First: O=C1Nc2cc3[nH]nc(-c4ccnnc4)c3cc2CN1Cc1ccc(F)cc1F [Compound 114]
Second: O=C1Nc2cc3[nH]nc(-c4ccc(F)cc4)c3cc2CN1Cc1ccc(F)c(Cl)c1 [Compound 40]
The IC50 of the first is lower: less than 0.05 µM for the first, 0.05 to 0.25 µM for the second. The first is the more potent here.

`C[C@H](c1cccc(Cl)c1)N1Cc2cc3c(-c4ccnnc4)n[nH]c3cc2NC1=O` [Compound 111] and `O=C1Nc2cc3[nH]nc(-c4ccnnc4)c3cc2CN1[C@H](CO)c1cccc(Cl)c1` [Compound 117] cannot be ordered by IC50: less than 0.05 µM for the first, less than 0.05 µM for the second.

Compared with `COc1ccc(-c2n[nH]c3cc4c(cc23)CN(CCc2cccc(Cl)c2)C(=O)N4)cn1` [Compound 85], `N#Cc1ccc(-c2n[nH]c3cc4c(cc23)CN(Cc2cccc(Cl)c2)C(=O)N4)cc1` [Compound 94] is higher in IC50: less than 0.05 µM for the first, 0.05 to 0.25 µM for the second.

`COc1ncc(-c2n[nH]c3cc4c(cc23)CN(C)C(=O)N4)cn1` [Compound 96] and `COc1ncc(-c2n[nH]c3cc4c(cc23)CN(CCN)C(=O)N4)cn1` [Compound 113] fall in the same range of IC50: 0.05 to 0.25 µM for the first, 0.05 to 0.25 µM for the second.

`Cc1cc(-c2n[nH]c3cc4c(cc23)CN([C@@H]2CCCN(Cc3cccc(Cl)c3)C2)C(=O)N4)ccn1` [Compound 156] and `Cc1cc(-c2n[nH]c3cc4c(cc23)CN([C@@H]2CCCN(Cc3ccc(Cl)cc3)C2)C(=O)N4)ccn1` [Compound 159] cannot be ordered by IC50: less than 0.05 µM for the first, less than 0.05 µM for the second.

First: Cc1cc(-c2n[nH]c3cc4[nH]c(=O)n(CCc5ccccc5)c4cc23)ccn1 [Compound 20]
Second: Cc1cc(-c2n[nH]c3cc4[nH]c(=O)n(Cc5ccccc5)c(=O)c4cc23)ccn1 [Compound 27]
The IC50 of the first is higher: 0.05 to 0.25 µM for the first, less than 0.05 µM for the second.

`CS(=O)(=O)c1ccc(-c2n[nH]c3cc4c(cc23)CN(Cc2cccc(Cl)c2)C(=O)N4)cc1` [Compound 89] and `O=C1Nc2cc3[nH]nc(-c4ccc5nncn5c4)c3cc2CN1Cc1cccc(Cl)c1` [Compound 59] cannot be ordered by IC50: less than 0.05 µM for the first, less than 0.05 µM for the second.

First: Cc1cc(-c2n[nH]c3cc4c(cc23)CN([C@@H]2CCCN(CC3CC5CCC3C5)C2)C(=O)N4)ccn1 (some centres unmarked) [Compound 142]
Second: Cc1cc(-c2n[nH]c3cc4c(cc23)CN([C@@H]2CCCN(CC3CCCCC3)C2)C(=O)N4)ccn1 [Compound 141]
The IC50 of the first is lower: less than 0.05 µM for the first, 0.05 to 0.25 µM for the second.

`Cc1cc(-c2n[nH]c3cc4c(cc23)CN(CCc2ccc(F)cc2)C(=O)N4)ccn1` [Compound 18] and `COc1ccc(CN2Cc3cc4c(-c5ccnc(C)c5)n[nH]c4cc3NC2=O)cc1` [Compound 10] cannot be ordered by IC50: less than 0.05 µM for the first, less than 0.05 µM for the second.

`Cc1cc(-c2n[nH]c3cc4c(cc23)CN([C@@H]2CCCN(Cc3cc(F)cc(F)c3)C2)C(=O)N4)ccn1` [Compound 163] and `Cc1cc(-c2n[nH]c3cc4c(cc23)CN([C@@H]2CCCN(Cc3cc(C5CC5)on3)C2)C(=O)N4)ccn1` [Compound 188] cannot be ordered by IC50: less than 0.05 µM for the first, less than 0.05 µM for the second.

First: Cc1cc(-c2n[nH]c3cc4c(cc23)CN(C2CCN(CCc3ccccc3)CC2)C(=O)N4)ccn1 [Compound 157]
Second: Cc1cc(-c2n[nH]c3cc4c(cc23)CN([C@@H]2CCCN(CCC(C)C)C2)C(=O)N4)ccn1 [Compound 169]
The IC50 of the first is higher: 0.05 to 0.25 µM for the first, less than 0.05 µM for the second. The second is the more potent here.

`[2H]c1c([2H])c([2H])c(C([2H])([2H])N2CCC[C@@H](N3Cc4cc5c(-c6ccnc(C)c6)n[nH]c5cc4NC3=O)C2)c([2H])c1[2H]` [Compound 165] and `COc1ncc(-c2n[nH]c3cc4c(cc23)CN([C@@H]2CCCN(Cc3ccccc3F)C2)C(=O)N4)cn1` [Compound 101] cannot be ordered by IC50: less than 0.05 µM for the first, less than 0.05 µM for the second.

`Cc1cc(-c2n[nH]c3cc4c(cc23)CN(Cc2cscn2)C(=O)N4)ccn1` [Compound 47] and `Cc1cc(-c2n[nH]c3cc4c(cc23)CN([C@H](C)CO)C(=O)N4)ccn1` [Compound 54] cannot be ordered by IC50: less than 0.05 µM for the first, less than 0.05 µM for the second.

`COc1ncc(-c2n[nH]c3cc4c(cc23)CN(CC2CCNCC2)C(=O)N4)cn1` [Compound 81] and `COc1ncc(-c2n[nH]c3cc4c(cc23)CN(CC2CCN(CC3CC3)CC2)C(=O)N4)cn1` [Compound 82] fall in the same range of IC50: 0.25 to 1 µM for the first, 0.25 to 1 µM for the second.

First: Cc1cc(-c2n[nH]c3cc4[nH]c(=O)c(C(C)Cc5ccc(F)cc5)cc4cc23)ccn1 (centres unmarked) [Compound 73]
Second: O=C1Nc2cc3[nH]nc(C4CC4)c3cc2CN1Cc1ccc(F)c(Cl)c1 [Compound 42]
The IC50 of the first is higher: greater than 1 µM for the first, 0.05 to 0.25 µM for the second.

same assay, conditions: In vitro, ERK2 enzyme 0.47 ng/μL, 100 μM ATP

Compared with `Cc1cc(-c2n[nH]c3cc4[nH]c(=O)c(C5CCCN(Cc6ccccc6)C5)cc4cc23)cc(C)n1` (centres unmarked) [Compound 360], `COc1cc(-c2n[nH]c3cc4[nH]c(=O)c(C5CCCN(Cc6ccccc6)C5)cc4cc23)ccn1` (centres unmarked) [Compound 370] is lower in IC50: 0.05 to 0.25 µM for the first, less than 0.05 µM for the second.

`Cc1cc(-c2n[nH]c3cc4c(cc23)CN([C@@H]2CCCN(C(C)C(F)(F)F)C2)C(=O)N4)ccn1` (some centres unmarked) [Compound 216] and `Cc1cc(-c2n[nH]c3cc4c(cc23)CN([C@@H]2CCCN(Cc3ccc(C)s3)C2)C(=O)N4)ccn1` [Compound 245] cannot be ordered by IC50: less than 0.05 µM for the first, less than 0.05 µM for the second.

`Cc1cc(-c2n[nH]c3cc4c(cc23)CN(C2CN(Cc3ccccc3)CC(F)(F)C2)C(=O)N4)ccn1` (centres unmarked) [Compound 200] and `Cc1cc(-c2n[nH]c3cc4c(cc23)CN([C@H]2CN(Cc3ccccc3)CC(F)(F)C2)C(=O)N4)ccn1` [Compound 264] cannot be ordered by IC50: less than 0.05 µM for the first, less than 0.05 µM for the second.

First: Cn1nccc1-c1n[nH]c2cc3c(cc12)CN(Cc1cccc(Cl)c1)C(=O)N3 [Compound 235]
Second: Cc1cc(-c2n[nH]c3cc4c(cc23)CN(C2CCC(=O)N(Cc3ccccc3)C2)C(=O)N4)ccn1 (centres unmarked) [Compound 232]
The IC50 of the first is higher: 0.05 to 0.25 µM for the first, less than 0.05 µM for the second.

`Cc1cc(-c2n[nH]c3cc4c(cc23)CN(C2CCCC2)C(=O)N4)cc(C)n1` [Compound 239] and `Cc1cc(-c2n[nH]c3cc4c(cc23)CN([C@H](C)c2ccccc2)C(=O)N4)cc(C)n1` [Compound 377] cannot be ordered by IC50: less than 0.05 µM for the first, less than 0.05 µM for the second.

`Cc1cc(-c2n[nH]c3cc4[nH]c(=O)c(CC5CCCCC5)cc4cc23)ccn1` [Compound 266] and `Cc1cc(-c2n[nH]c3cc4c(cc23)CN([C@@H]2CCC[C@@H](NCc3ccccc3)C2)C(=O)N4)ccn1` [Compound 313] cannot be ordered by IC50: less than 0.05 µM for the first, less than 0.05 µM for the second.

`COc1cc(-c2n[nH]c3cc4c(cc23)CN([C@@H]2CN(C)C[C@H]2c2ccccc2)C(=O)N4)ccn1` (mixture of isomers) [Compound 354] and `Cn1cc(-c2n[nH]c3cc4c(cc23)CN([C@@H]2CCCN(Cc3ccc(F)cc3F)C2)C(=O)N4)cn1` [Compound 281] cannot be ordered by IC50: less than 0.05 µM for the first, less than 0.05 µM for the second.

`COc1ncc(-c2n[nH]c3cc4[nH]c(=O)c(C5CCCN(Cc6ccccc6)C5)cc4cc23)cn1` (centres unmarked) [Compound 364] and `CC(c1ccccc1)c1cc2cc3c(-c4ccnnc4)n[nH]c3cc2[nH]c1=O` (centres unmarked) [Compound 323] cannot be ordered by IC50: less than 0.05 µM for the first, less than 0.05 µM for the second.

`Cn1nccc1-c1n[nH]c2cc3c(cc12)CN([C@@H]1CCN(CC(F)(F)F)C1)C(=O)N3` [Compound 265] was tested, and the IC50 was 0.05 to 0.25 µM.
